Reference: US5710135A, “Anthracycline prodrugs, method for preparation as well as their use in selective chemotherapy” (Pharmachemie B.V., priority 1995, dated 1998)
Structures can show the parent of a compound that is named as a salt. Where two headings read alike, the source gives them in different places.

What was measured:
OVCAR-3 cells = assay: Anti-proliferative effect on OVCAR-3 cells (sulforhodamine B protein dye stain); type: cell-based; settings: Homo sapiens
Description: The anti-proliferative effect of daunorubicin, doxorubicin and idarubicin, and of the prodrugs of examples 1 to 6 on OVCAR-3 cells was determined by measuring cell growth with a protein dye stain (H. J. Haisma et al. Br. J. Cancer 1992, 66, 474-478. Cells were harvested with 0.25 trypsin and 0.2% EDTA in PBS to obtain a single cell suspension and seeded in 96-wells tissue culture plates (2×10^6 cells/mL 10 μL/well, 3 wells per concentration). Drug or prodrug was added (10 μL/well) at different concentrations with a range of 3 or more logs. After incubation for 24 hours, 200 μL of culture medium (supplemented DMEM) was added and the cells were grown for another 72 hours. Cells were fixed with 25% trichloroacetic acid for 1 hour at 4° C. and washed with water. After staining the cells with 0.4% sulforhodamine B in 1% (v/v) acetic acid for 15 min. at room temperature, they were washed with 1% acetic acid and air-dried. The bound dye was solubilized with 10 mM unbuffered Tris and the absorbance was read at 492 nm. The absorbance was linear with cell concentrations from 1,000 to 200,000 cells/well. Separate wells were fixed 24 hours after seeding to substract background staining. The anti-proliferative effects were determined and expressed as IC50 values which are the (pro)drug concentrations that gave 50% growth inhibition when compared to control cell growth.

β-glucuronidase = target: T1, β-glucuronidase (Homo sapiens, UniProt P08236); assay: Enzyme hydrolysis half-life with β-glucuronidase; type: biochemical; settings: 100 μM prodrug, pH 6.8, 0.03 U/mL β-glucuronidase, 37° C.; read-out: T1/2 (min.) of enzyme hydrolysis
T1 sequence (P08236 23-651): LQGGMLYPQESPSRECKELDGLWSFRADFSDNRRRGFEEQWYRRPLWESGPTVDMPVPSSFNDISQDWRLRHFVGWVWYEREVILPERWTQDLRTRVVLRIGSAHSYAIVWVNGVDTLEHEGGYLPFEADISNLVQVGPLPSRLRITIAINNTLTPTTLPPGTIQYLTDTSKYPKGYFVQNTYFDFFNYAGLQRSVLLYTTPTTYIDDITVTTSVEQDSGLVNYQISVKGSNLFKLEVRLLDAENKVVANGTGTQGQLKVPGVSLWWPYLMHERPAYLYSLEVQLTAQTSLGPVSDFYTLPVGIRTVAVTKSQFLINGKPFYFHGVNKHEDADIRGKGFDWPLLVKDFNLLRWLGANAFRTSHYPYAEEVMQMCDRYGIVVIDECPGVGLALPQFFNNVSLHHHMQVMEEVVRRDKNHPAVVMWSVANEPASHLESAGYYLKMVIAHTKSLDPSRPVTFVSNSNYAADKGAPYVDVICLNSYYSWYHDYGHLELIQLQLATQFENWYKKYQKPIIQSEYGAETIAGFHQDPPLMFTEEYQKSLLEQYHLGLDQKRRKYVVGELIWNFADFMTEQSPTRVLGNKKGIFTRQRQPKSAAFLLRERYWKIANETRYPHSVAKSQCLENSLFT
Description: (§1) Half-lifes of enzyme hydrolysis were determined by incubating 100 μM prodrug at pH =6.8 with 0.03 U/mL β-glucuronidase or 0.3 U/mL β-glucosidase or β-galactosidase at 37° C.

[1] = Enzyme hydrolysis half-life with β-glucosidase; type: biochemical; settings: 100 μM prodrug, pH 6.8, 0.3 U/mL β-glucosidase, 37° C.; read-out: T1/2 (min.) of enzyme hydrolysis
Description: as §1

[2] = OVCAR-3 cells, 24 hours incubation with (pro)drug, then grown another 72 hours, read-out: IC50 (μM), (pro)drug concentration giving 50% growth inhibition
[3] = OVCAR-3, read-out: IC50 (μM), (pro)drug concentration giving 50% growth inhibition

Row | SMILES | IC50 (OVCAR-3 cells; [2]) [µM] | half-life at 100 µM (β-glucuronidase) [min] | half-life at 100 µM [1] [min] | IC50 (OVCAR-3 cells; [3]) [µM]
1 | COc1cccc2c1C(=O)c1c(O)c3c(c(O)c1C2=O)C[C@@](O)(C(C)=O)C[C@@H]3O[C@H]1C[C@H](NC(=O)OCc2ccccc2NC(=O)O[C@@H]2O[C@H](C(=O)O)[C@@H](O)[C@H](O)[C@H]2O)[C@H](O)[C@H](C)O1 [1a-ortho, N-[2-(daunorubicin-N-carbonyl-oxymethyl)phenyl] O-β-glucuronyl carbamate sodium salt] | 20 | 125 |  | 
2 | COc1cccc2c1C(=O)c1c(O)c3c(c(O)c1C2=O)C[C@@](O)(C(C)=O)C[C@@H]3O[C@H]1C[C@H](NC(=O)OCc2ccc(NC(=O)O[C@@H]3O[C@H](C(=O)O)[C@@H](O)[C@H](O)[C@H]3O)cc2)[C@H](O)[C@H](C)O1 [1a-para, N-[4-(daunorubicin-N-carbonyl-oxymethyl)phenyl] O-β-glucuronyl carbamate sodium salt] | 22 | 135 |  | 
3 | COc1cccc2c1C(=O)c1c(O)c3c(c(O)c1C2=O)C[C@@](O)(C(=O)CO)C[C@@H]3O[C@H]1C[C@H](NC(=O)OCc2ccc(NC(=O)O[C@@H]3O[C@H](C(=O)O)[C@@H](O)[C@H](O)[C@H]3O)cc2)[C@H](O)[C@H](C)O1 [1b-para, N-[4-(doxorubicin-N-carbonyl-oxymethyl)phenyl] O-β-glucuronyl carbamate sodium salt] | > 10 | 170 |  | 
4 | CC(=O)[C@]1(O)Cc2c(O)c3c(c(O)c2[C@@H](O[C@H]2C[C@H](NC(=O)OCc4ccc(NC(=O)O[C@@H]5O[C@H](C(=O)O)[C@@H](O)[C@H](O)[C@H]5O)cc4)[C@H](O)[C@H](C)O2)C1)C(=O)c1ccccc1C3=O [1c-para, N-[4-(idarubicin-N-carbonyl-oxymethyl)phenyl] O-β-glucuronyl carbamate sodium salt] | > 1 | 120 |  | 
5 | COc1cccc2c1C(=O)c1c(O)c3c(c(O)c1C2=O)C[C@@](O)(C(C)=O)C[C@@H]3O[C@H]1C[C@H](NC(=O)OCc2ccc(NC(=O)O[C@@H]3O[C@H](CO)[C@@H](O)[C@H](O)[C@H]3O)cc2)[C@H](O)[C@H](C)O1 [1d-para, N-[4-(daunorubicin-N-carbonyl-oxymethyl)phenyl] O-β-glucosyl carbamate] | 20 |  | > 500 | 
6 | COc1cccc2c1C(=O)c1c(O)c3c(c(O)c1C2=O)C[C@@](O)(C(C)=O)C[C@@H]3O[C@H]1C[C@H](N)[C@H](O)[C@H](C)O1 [12a, daunorubicin, reference compound] |  |  |  | 1.2
7 | COc1cccc2c1C(=O)c1c(O)c3c(c(O)c1C2=O)C[C@@](O)(C(=O)CO)C[C@@H]3O[C@H]1C[C@H](N)[C@H](O)[C@H](C)O1 [12b, doxorubicin, reference compound] |  |  |  | 1
8 | CC(=O)[C@]1(O)Cc2c(O)c3c(c(O)c2[C@@H](O[C@H]2C[C@H](N)[C@H](O)[C@H](C)O2)C1)C(=O)c1ccccc1C3=O [12c, idarubicin, reference compound] | 0.1 |  |  | 
